Literature values, collected in patent US20240286999A1, “AZABICYCLO[3.1.0]HEXANE COMPOUND” (OTSUKA PHARMACEUTICAL CO., LTD., priority 2021, published 2024).

How the values were obtained:
dopamine reuptake (DA) = details: relative to NE reuptake
[1] = tested on: norepinephrine reuptake (NE); details: ranking among NE, DA and 5-HT reuptake
[2] = tested on: serotonin reuptake (5-HT); details: relative to NE reuptake

## c1ccc2cc([C@]34CNC[C@H]3C4)ccc2c1 [(1R,5S)-1-(naphthalen-2-yl)-3-azabicyclo[3.1.0]hexane]
Dopamine reuptake (DA)
  effectiveness against dopamine reuptake (DA) relative to norepinephrine reuptake: one-sixth as effective
[1]
  effectiveness against norepinephrine reuptake (NE): most effective
[2]
  effectiveness against serotonin reuptake (5-HT) relative to norepinephrine reuptake: one-fourteenth as effective
